# Experimental data published in US8178570B2, “Tie-2 modulators and methods of use” (Exelixis, Inc., priority 2003, dated 2012).
# Biological target: Tie-2 (Homo sapiens, UniProt Q02763)
# Assay: Tie-2 tyrosine kinase activity: kinase-dependent ATP consumption (pEY substrate, luciferase/luciferin chemiluminescence) or 33P-ATP incorporation into substrate
# Assay type: biochemical
# Details: Tie-2 (human enzyme) inhibition, Table 2, class symbols A-D
# Summary of the method: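 Tie-2 kinase activity is read either as ATP consumption with pEY substrate by luciferase/luciferin chemiluminescence, or as 33P incorporation from 33P-ATP into plate-adsorbed substrate by scintillation counting. IC50 values are binned as A <50 nM, B >50–1000 nM, C >1000–<10,000 nM, and D ≥10,000 nM.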
# Tie-2, sequence (Q02763 23-1124): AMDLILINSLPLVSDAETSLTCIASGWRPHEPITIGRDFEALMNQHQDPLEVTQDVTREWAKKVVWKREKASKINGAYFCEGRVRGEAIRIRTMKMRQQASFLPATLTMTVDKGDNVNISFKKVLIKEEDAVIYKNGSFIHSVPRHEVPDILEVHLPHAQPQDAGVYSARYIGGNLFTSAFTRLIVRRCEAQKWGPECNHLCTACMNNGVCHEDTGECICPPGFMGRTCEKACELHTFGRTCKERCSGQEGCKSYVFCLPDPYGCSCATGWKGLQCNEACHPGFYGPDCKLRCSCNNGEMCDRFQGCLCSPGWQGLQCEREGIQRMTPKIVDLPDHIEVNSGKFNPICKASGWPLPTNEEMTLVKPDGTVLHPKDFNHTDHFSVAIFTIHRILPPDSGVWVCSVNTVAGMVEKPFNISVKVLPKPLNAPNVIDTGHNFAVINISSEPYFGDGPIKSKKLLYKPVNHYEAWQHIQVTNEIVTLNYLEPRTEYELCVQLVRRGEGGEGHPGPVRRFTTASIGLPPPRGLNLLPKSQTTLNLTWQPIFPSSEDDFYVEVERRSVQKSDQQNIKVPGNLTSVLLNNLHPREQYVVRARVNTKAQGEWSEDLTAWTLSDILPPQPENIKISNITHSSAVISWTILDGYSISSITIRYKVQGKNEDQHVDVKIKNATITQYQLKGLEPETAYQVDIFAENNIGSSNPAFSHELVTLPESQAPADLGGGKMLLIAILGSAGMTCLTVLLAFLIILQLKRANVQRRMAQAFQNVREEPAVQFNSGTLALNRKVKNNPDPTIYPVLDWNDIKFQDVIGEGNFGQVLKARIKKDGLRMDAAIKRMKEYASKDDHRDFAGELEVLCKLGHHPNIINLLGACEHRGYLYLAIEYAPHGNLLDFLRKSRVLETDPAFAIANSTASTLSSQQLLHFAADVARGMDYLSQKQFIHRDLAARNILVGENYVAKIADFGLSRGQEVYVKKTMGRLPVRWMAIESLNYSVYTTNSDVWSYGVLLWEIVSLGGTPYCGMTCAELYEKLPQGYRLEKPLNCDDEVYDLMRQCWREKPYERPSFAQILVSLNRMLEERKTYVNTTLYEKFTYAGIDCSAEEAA
row,SMILES,IC50 [nM]
1,"COc1ccc(-c2nc(-c3ccncc3)nn2CCN(C(=O)Cc2ccccc2)C2CCCC2)cc1Cl [Entry 31, N-(2-{5-[3-chloro-4-(methyloxy)phenyl]-3-pyridin-4-yl-1H-1,2,4-triazol-1-yl}ethyl)-N-cyclopentyl-2-phenylacetamide]",1000 to 10000
2,"COc1ccc(-c2nc(-c3ccncc3)nn2CCN(C(=O)Nc2ccc(Cl)c(Cl)c2)C2CCCC2)cc1Cl [Entry 88, N-(2-{5-[3-chloro-4-(methyloxy)phenyl]-3-pyridin-4-yl-1H-1,2,4-triazol-1-yl}ethyl)-N-cyclopentyl-N′-(3,4-dichlorophenyl)urea]",≥ 10000
3,"COc1ccc(NC(=O)N(CCn2nc(-c3ccncc3)nc2-c2ccc(OC)c(Cl)c2)C2CCCC2)c(C)c1 [Entry 138, N-(2-{5-[3-chloro-4-(methyloxy)phenyl]-3-pyridin-4-yl-1H-1,2,4-triazol-1-yl}ethyl)-N-cyclopentyl-N′-[2-methyl-4-(methyloxy)phenyl]urea]",1000 to 10000
4,"COc1ccc(-c2nc(-c3ccncc3)n(CCN(C(=O)Cc3cccc4ccccc34)C3CCCC3)n2)cc1 [Entry 40, N-cyclopentyl-N-(2-{3-[4-(methyloxy)phenyl]-5-pyridin-4-yl-1H-1,2,4-triazol-1-yl}ethyl)-2-naphthalen-1-ylacetamide]",1000 to 10000
5,"COc1ccc(-c2nc(-c3ccncc3)n(CCCN(C(=O)Cc3cccc4ccccc34)C3CCCC3)n2)cc1Cl [Entry 9, N-(3-{3-[3-chloro-4-(methyloxy)phenyl]-5-pyridin-4-yl-1H-1,2,4-triazol-1-yl}propyl)-N-cyclopentyl-2-naphthalen-1-ylacetamide]",≥ 10000
6,"COc1ccc(-c2nc(-c3ccncc3)nn2CCN(C(=O)Nc2cc(C)ccc2OC)C2CCCC2)cc1Cl [Entry 145, N-(2-{5-[3-chloro-4-(methyloxy)phenyl]-3-pyridin-4-yl-1H-1,2,4-triazol-1-yl}ethyl)-N-cyclopentyl-N′-[5-methyl-2-(methyloxy)phenyl]urea]",≥ 10000
7,"COc1ccc(-c2nc(-c3ccncc3)nn2CCN(C(=O)Nc2ccccc2Cl)C2CCCC2)cc1Cl [Entry 118, N-(2-{5-[3-chloro-4-(methyloxy)phenyl]-3-pyridin-4-yl-1H-1,2,4-triazol-1-yl}ethyl)-N′-(2-chlorophenyl)-N-cyclopentylurea]",1000 to 10000
8,"COc1ccc(-c2nc(-c3ccnc(Cl)c3)nn2CCN(C(=O)Cc2cccc3ccccc23)C2CCCC2)cc1Cl [Entry 53, N-{2-[5-[3-chloro-4-(methyloxy)phenyl]-3-(2-chloropyridin-4-yl)-1H-1,2,4-triazol-1-yl]ethyl}-N-cyclopentyl-2-naphthalen-1-ylacetamide]",≥ 10000
9,"Cc1nc(-c2ccncc2)nn1CCN(C(=O)Cc1cccc2ccccc12)C1CCCCC1 [Entry 179, N-cyclohexyl-N-[2-(5-methyl-3-pyridin-4-yl-1H-1,2,4-triazol-1-yl)ethyl]-2-naphthalen-1-ylacetamide]",< 50
10,"O=C(Cc1cccc2ccccc12)N(CCn1nc(-c2cccc(Br)c2)nc1-c1ccncc1)C1CCCC1 [Entry 66, N-{2-[3-(3-bromophenyl)-5-pyridin-4-yl-1H-1,2,4-triazol-1-yl]ethyl}-N-cyclopentyl-2-naphthalen-1-ylacetamide]",≥ 10000
11,"COc1ccc(-c2nc(-c3ccncc3)nn2CCN(C(=O)Nc2ccccc2OC)C2CCCC2)cc1Cl [Entry 84, N-(2-{5-[3-chloro-4-(methyloxy)phenyl]-3-pyridin-4-yl-1H-1,2,4-triazol-1-yl}ethyl)-N-cyclopentyl-N′-[2-(methyloxy)phenyl]urea]",≥ 10000
12,"COc1ccc(-c2nc(-c3ccncc3)nn2CCN(C(=O)Nc2c(C)cccc2C(C)(C)C)C2CCCC2)cc1Cl [Entry 130, N-(2-{5-[3-chloro-4-(methyloxy)phenyl]-3-pyridin-4-yl-1H-1,2,4-triazol-1-yl}ethyl)-N-cyclopentyl-N′-[2-(1,1-dimethylethyl)-6-methylphenyl]urea]",≥ 10000
13,"COc1ccc(-c2nc(-c3ccccc3)nn2CCN(C(=O)Cc2cccc3ccccc23)C2CCCC2)cc1Cl [Entry 32, N-(2-{5-[3-chloro-4-(methyloxy)phenyl]-3-phenyl-1H-1,2,4-triazol-1-yl}ethyl)-N-cyclopentyl-2-naphthalen-1-ylacetamide]",≥ 10000
14,"COc1ccc(NC(=O)N(CCn2nc(-c3ccncc3)nc2-c2ccc(OC)c(Cl)c2)C2CCCC2)c(OC)c1 [Entry 85, N′-[2,4-bis(methyloxy)phenyl]-N-(2-{5-[3-chloro-4-(methyloxy)phenyl]-3-pyridin-4-yl-1H-1,2,4-triazol-1-yl}ethyl)-N-cyclopentylurea]",≥ 10000
15,"O=C(Cc1cccc2ccccc12)N(CCn1nc(-c2ccncc2)nc1-c1cccc(Cl)c1)C1CCCC1 [Entry 58, N-{2-[5-(3-chlorophenyl)-3-pyridin-4-yl-1H-1,2,4-triazol-1-yl]ethyl}-N-cyclopentyl-2-naphthalen-1-ylacetamide]",< 50
16,"CCNc1cc(-c2nc(C)n(CCN(C(=O)Cc3cccc4ccccc34)C3CCCC3)n2)ccn1 [Entry 166, N-cyclopentyl-N-(2-{3-[2-(ethylamino)pyridin-4-yl]-5-methyl-1H-1,2,4-triazol-1-yl}ethyl)-2-naphthalen-1-ylacetamide]",< 50

# Now from value to compound:
row,IC50 [nM],SMILES
1,< 50,"Cc1nc(-c2ccncc2)nn1CCN(C(=O)Cc1cccc2ccccc12)C(C)C [Entry 177, N-(1-methylethyl)-N-[2-(5-methyl-3-pyridin-4-yl-1H-1,2,4-triazol-1-yl)ethyl]-2-naphthalen-1-ylacetamide]"
2,50 to 1000,"Cc1nc(-c2ccncc2)nn1CCN(C(=O)Cc1cccc2ccccc12)C1CC1 [Entry 168, N-cyclopropyl-N-[2-(5-methyl-3-pyridin-4-yl-1H-1,2,4-triazol-1-yl)ethyl]-2-naphthalen-1-ylacetamide]"
3,50 to 1000,"O=C(Cc1cccc2ccccc12)N(CCn1nc(-c2ccco2)nc1-c1ccncc1)C1CCCC1 [Entry 18, N-cyclopentyl-N-[2-(3-furan-2-yl-5-pyridin-4-yl-1H-1,2,4-triazol-1-yl)ethyl]-2-naphthalen-1-ylacetamide]"
4,≥ 10000,"C=C(C)c1cccc(C(C)(C)NC(=O)N(CCn2nc(-c3ccncc3)nc2-c2ccc(OC)c(Cl)c2)C2CCCC2)c1 [Entry 114, N-(2-{5-[3-chloro-4-(methyloxy)phenyl]-3-pyridin-4-yl-1H-1,2,4-triazol-1-yl}ethyl)-N-cyclopentyl-N′-{1-methyl-1-[3-(1-methylethenyl)phenyl]ethyl}urea]"
5,50 to 1000,"Cc1nc(-c2cc(N)nc(Cl)c2)nn1CCN(C(=O)Cc1cccc2ccccc12)C1CCCC1 [Entry 185, N-{2-[3-(2-amino-6-chloropyridin-4-yl)-5-methyl-1H-1,2,4-triazol-1-yl]ethyl}-N-cyclopentyl-2-naphthalen-1-ylacetamide]"
6,≥ 10000,"O=C(Cc1cccc2ccccc12)N(CCn1nc(-c2cccc(C(F)(F)F)c2)nc1-c1ccncc1)C1CCCC1 [Entry 46, N-cyclopentyl-2-naphthalen-1-yl-N-(2-{5-pyridin-4-yl-3-[3-(trifluoromethyl)phenyl]-1H-1,2,4-triazol-1-yl}ethyl)acetamide]"
7,1000 to 10000,"Cc1ccc(-c2nc(-c3ccncc3)n(CCN(C(=O)Cc3cccc4ccccc34)C3CCCC3)n2)cc1 [Entry 71, N-cyclopentyl-N-{2-[3-(4-methylphenyl)-5-pyridin-4-yl-1H-1,2,4-triazol-1-yl]ethyl}-2-naphthalen-1-ylacetamide]"
8,50 to 1000,"Cc1nc(-c2ccnc(NCCN(C)C)c2)nn1CCN(C(=O)Cc1cccc2ccccc12)C1CCCC1 [Entry 164, N-cyclopentyl-N-{2-[3-(2-{[2-(dimethylamino)ethyl]amino}pyridin-4-yl)-5-methyl-1H-1,2,4-triazol-1-yl]ethyl}-2-naphthalen-1-ylacetamide]"
9,< 50,"COc1ccc(-c2nc(-c3ccncc3)nn2CCN(C(=O)Cc2cccc3ccccc23)C2CCCCC2)cc1Cl [Entry 36, N-(2-{5-[3-chloro-4-(methyloxy)phenyl]-3-pyridin-4-yl-1H-1,2,4-triazol-1-yl}ethyl)-N-cyclohexyl-2-naphthalen-1-ylacetamide]"
10,50 to 1000,"Cc1nc(-c2cc(N)nc(N)c2)nn1CCN(C(=O)Cc1cccc2ccccc12)C1CCCC1 [Entry 186, N-cyclopentyl-N-{2-[3-(2,6-diaminopyridin-4-yl)-5-methyl-1H-1,2,4-triazol-1-yl]ethyl}-2-naphthalen-1-ylacetamide]"
11,≥ 10000,"COc1ccc(-c2nc(-c3ccncc3)nn2CCN(C(=O)Nc2cccc([N+](=O)[O-])c2C)C2CCCC2)cc1Cl [Entry 132, N-(2-{5-[3-chloro-4-(methyloxy)phenyl]-3-pyridin-4-yl-1H-1,2,4-triazol-1-yl}ethyl)-N-cyclopentyl-N′-(2-methyl-3-nitrophenyl)urea]"
12,≥ 10000,"COc1ccc(-c2nc(-c3ccncc3)nn2CCN(C(=O)Nc2cccc(C)c2)C2CCCC2)cc1Cl [Entry 106, N-(2-{5-[3-chloro-4-(methyloxy)phenyl]-3-pyridin-4-yl-1H-1,2,4-triazol-1-yl}ethyl)-N-cyclopentyl-N′-(3-methylphenyl)urea]"
13,< 50,"COc1ccc(-c2nc(-c3ccncc3)nn2CCN(C(=O)Cc2cccc3ccccc23)C2CCCC2)cc1OC [Entry 41, N-(2-{5-[3,4-bis(methyloxy)phenyl]-3-pyridin-4-yl-1H-1,2,4-triazol-1-yl}ethyl)-N-cyclopentyl-2-naphthalen-1-ylacetamide]"
14,1000 to 10000,"COc1ccc(-c2nc(-c3ccncc3)nn2CCN(C(=O)c2cccc3ccccc23)C2CCCC2)cc1Cl [Entry 20, N-(2-{5-[3-chloro-4-(methyloxy)phenyl]-3-pyridin-4-yl-1H-1,2,4-triazol-1-yl}ethyl)-N-cyclopentylnaphthalene-1-carboxamide]"
15,50 to 1000,"Cc1nc(-c2ccncc2)nn1CCN(C(=O)Cc1cccc2ccccc12)C1CCOCC1 [Entry 171, N-[2-(5-methyl-3-pyridin-4-yl-1H-1,2,4-triazol-1-yl)ethyl]-2-naphthalen-1-yl-N-(tetrahydro-2H-pyran-4-yl)acetamide]"
